This assay concerns HEK293 cells. The assay can be described thus: CellTiter-Glo Luminescent Cell Viability Assay in HEK293 cells. Format: cell-based. Particulars: Homo sapiens, 168 h, 7 days incubation, 3 μM to 0.00015 μM. The text has this: CellTiter-Glo™ Assay in HEK293 Cells
The CellTiter-Glo™ Luminescent Cell Viability Assay (Promega) is a homogeneous method of determining the number of viable cells in culture based on quantitation of the ATP present, which signals the presence of metabolically active cells.
HEK293 cells (human embryonic kidney cell line transformed by Adenovirus 5 fragments, ATCC-No. CRL 1573) were cultivated in Dulbecco's Modified Eagle Medium (DMEM) with Glutamax™ (Invitrogen, 31966-021), 5% Fetal Calf Serum (FCS, Sigma Cat-No. F4135 (FBS)), 100 Units/ml penicillin/100 μg/ml streptomycin (=Pen/Strep from Invitrogen Cat. No. 15140)., For the assay the cells were seeded in 384 well plates, 5000 cells per well, in the same medium. The next day the test compounds were added in various concentrations ranging from 3 μM to 0.00015 μM (10 concentrations, 1:3 diluted). After 7 days the CellTiter-Glo™ assay was done according to the instructions of the manufacturer (CellTiter-Glo™ Luminescent Cell Viability Assay, from Promega). In brief: the cell-plate was equilibrated to room temperature for approximately 30 minutes and than the CellTiter-Glo™ reagent was added. The contents were carefully mixed for 15 minutes to induce cell lysis. After 45 minutes the luminescent signal was measured in Victor 2, (scanning multiwell spectrophotometer, Wallac).
Medium: Dulbecco's Modified Eagle Medium (DMEM) with Glutamax™ (Invitrogen, 31966-021), 5% Fetal Calf Serum (FCS, Sigma Cat-No. F4135 (FBS)), Pen/Strep (Invitrogen Cat. No. 15140).
Incubate 24 h at 37° C., 5% CO2
2nd Day: Induction (Substance Testing):
In general the dilution steeps are 1:3 • a) Add 8 μl of 10 mM stock solution of compound to 72 μl DMSO • b) dilute 9×1:3 (always 30 μl to 60 μl DMSO) in this DMSO dilution row (results in 10 wells with concentrations from 1000 μM to 0.06 μM) • c) dilute each concentration 1:4.8 (10 μl compound dilution to 38 μl medium) • d) dilute each concentration 1:10 (10 μl compound dilution to 90 μl medium) • e) add 10 μl of every concentration to 60 μl medium in the cell plate • resulting in final concentration of DMSO: 0.3% in every well • and resulting in final concentration of compounds from 3 μM to 0.00015 μM • Incubate 168 h (7 days) at 37° C., 5% CO2
Analysis: • Add 30 μl CellTiter-Glo™ Reagent/well, • shake 15 minutes at room temperature • incubate further 45 minutes at room temperature without shaking.
Measurement: • Victor 2 scanning multiwell spectrophotometer (Wallac), Luminescence mode • Determine IC50 with XL-fit (XLfit software (ID Business Solution Ltd., Guilford, Surrey, UK)).
(ATP-based viability assays read luminescence as a measure of living cells.)

With `OCCn1cc(CCCCc2ccc(OCc3coc(/C=C/c4ccc(OC(F)(F)F)cc4)n3)cc2)nn1` [Example 1.6, 2-{4-[4-(4-{2-[(E)-2-(4-Trifluoromethoxy-phenyl)-vinyl]-oxazol-4-ylmethoxy}-phenyl)-butyl]-[1,2,3]triazol-1-yl}-ethanol], the IC50 stood at 166 nM.

For the compound `OCCn1nncc1CCCCc1ccc(OCc2coc(/C=C/c3ccc(OC(F)(F)F)cc3)n2)cc1` [Example 1.7, 2-{5-[4-(4-{2-[(E)-2-(4-Trifluoromethoxy-phenyl)-vinyl]-oxazol-4-ylmethoxy}-phenyl)-butyl]-[1,2,3]triazol-1-yl}-ethanol], the IC50 lay in the range of 5 to 250 nM. With `N#CCn1ncc(CCCCc2ccc(OCc3coc(/C=C/c4ccc(OC(F)(F)F)cc4)n3)cc2)n1` [Example 1.14, {4-[4-(4-{2-[(E)-2-(4-Trifluoromethoxy-phenyl)-vinyl]-oxazol-4-ylmethoxy}-phenyl)-butyl]-[1,2,3]triazol-2-yl}-acetonitrile], the IC50 was in the range of 250 to 1500 nM. Turning to `N#CCn1nncc1CCCCc1ccc(OCc2coc(/C=C/c3ccc(OC(F)(F)F)cc3)n2)cc1` [Example 1.16, {5-[4-(4-{2-[(E)-2-(4-Trifluoromethoxy-phenyl)-vinyl]-oxazol-4-ylmethoxy}-phenyl)-butyl]-[1,2,3]triazol-1-yl}-acetonitrile], the IC50 fell in the range of 250 to 1500 nM.

As to `CC(C)([PH2]=O)n1cc(CCCCc2ccc(OCc3coc(/C=C/c4ccc(OC(F)(F)F)cc4)n3)cc2)nn1` [Example 1.17, 1-(Dimethyl-phosphinoylmethyl)-4-[4-(4-{2-[(E)-2-(4-trifluoromethoxy-phenyl)-vinyl]-oxazol-4-ylmethoxy}-phenyl)-butyl]-1H-[1,2,3]triazole], the IC50 was 250 to 1500 nM.

`CC(C)([PH2]=O)n1ncc(CCCCc2ccc(OCc3coc(/C=C/c4ccc(OC(F)(F)F)cc4)n3)cc2)n1` [Example 1.18, 2-(Dimethyl-phosphinoylmethyl)-4-[4-(4-{2-[(E)-2-(4-trifluoromethoxy-phenyl)-vinyl]-oxazol-4-ylmethoxy}-phenyl)-butyl]-2H-[1,2,3]triazole] came in with a concentration for half-maximal inhibition (IC50) of 5 to 250 nM. The figure for `FC(F)(F)Oc1ccc(/C=C/c2nc(COc3ccc(CCCCc4cnn(CCN5CCOCC5)n4)cc3)co2)cc1` [Example 1.19, 4-(2-{4-[4-(4-{2-[(E)-2-(4-Trifluoromethoxy-phenyl)-vinyl]-oxazol-4-ylmethoxy}-phenyl)-butyl]-[1,2,3]triazol-2-yl}-ethyl)-morpholine] is 5 to 250 nM.

Broadly, the IC50 is the concentration needed to halve the response being measured.

(Values after patent US20060069095A1, “Azole derivatives” (priority 2004, published 2006).)
